The values that follow come from patent US11566044B2, “Disulfide bond containing compounds and uses thereof” (THE UNIVERSITY OF QUEENSLAND, priority 2017, dated 2023).

A short description of this data set: DTNB assay: stability of the S—S bond to 20% v/v piperidine in DMF (Fmoc-SPPS conditions). It counts as physicochemical. The following applies: 20% v/v piperidine in DMF for 6 h, absorbance at 308 and 412 nm. The source says:
Prior to exploring further applications of the novel disulfide-bridged amino acid, the stability of its —S—S— bond to reagents/conditions employed during Fmoc-SPPS had to be established. For each deprotection step performed during peptide synthesis, a resin bound random amino acid is exposed to basic reagents with 20% v/v piperidine in DMF. —S—S— bond stability to these basic conditions was therefore trialled using a di-Boc protected disulfide bridged amino acid of the invention (compound 11), since the Boc protecting groups themselves would be stable to the basic conditions. […] Premature reduction of the disulfide-containing amino acid by piperidine would lead to the formation of free thiols that react with DTNB releasing NTB^2−, which can be readily identified spectrophotometrically at 412 nm.
DTNB (1 mg) was dissolved in 1 mL of methanol and a 1 mg/mL stock solution was prepared. A DTNB calibration curve was prepared by measurement of the absorbance (λmax=308 nm) over a range of concentrations (5, 10, 15, 20, and 25 μg/mL) in the presence of 20% v/v piperidine in DMF (100 μL). […]
Stability of the disulfide-bridged amino acid (compound 11) to basic conditions was assessed next, where it was first incubated with 20% v/v piperidine in DMF for up to 6 h and from that different concentrations of samples were prepared. […]

Take `COC(=O)[C@H](CSSC(C)(C)CNC(=O)OC(C)(C)C)NC(=O)OC(C)(C)C` [compound 11, Boc-Cys(S—SC(CH3)2CH2NH(Boc))—OCH3]: the “Base stability of the S—S bond (free thiols generated/detected)” value was “no free thiols were generated/detected”.
